These results are taken from ChEMBL document CHEMBL1136696, “Azalide 3,6-ketals: antibacterial activity and structure-activity relationships of aryl and hetero aryl substituted analogues” (Bioorg Med Chem Lett, 2003).

Converted amounts (≈) assume the structure as drawn. Where only a bound is given, the exact number is not on record here.

What all share (assay type): functional
One test concerns Pasteurella multocida. The experiment in a line: In vitro antibacterial activity against Pasteurella multocida 59A0067.
A further test concerns Escherichia coli. The experiment in a line: In vitro antibacterial activity against Escherichia coli 51A0150.
The test system of the next test is Staphylococcus aureus. The experiment in a line: In vitro antibacterial activity against Staphylococcus aureus 01A0758.

Turning to `CC[C@H]1OC(=O)[C@H](C)[C@H]2OC3(CCN(c4ccc([N+](=O)[O-])c(N)n4)CC3)O[C@](C)(C[C@@H](C)CN[C@H](C)[C@@H](O)[C@]1(C)O)[C@H](O[C@@H]1O[C@H](C)CC(N(C)C)[C@H]1O)[C@H]2C` (stereo not given in full), the figures for the MIC in the test on Pasteurella multocida, in the test with Escherichia coli and with Staphylococcus aureus were 0.1 µg/mL (≈ 0.126 µM), 3.13 µg/mL (≈ 3.94 µM) and 1.56 µg/mL (≈ 1.96 µM), respectively.

For `CC[C@H]1OC(=O)[C@H](C)[C@H]2OC3(CCN(c4ncc(C(=O)OCc5ccccc5)c(C(F)(F)F)n4)CC3)O[C@](C)(C[C@@H](C)CN[C@H](C)[C@@H](O)[C@]1(C)O)[C@H](O[C@@H]1O[C@H](C)CC(N(C)C)[C@H]1O)[C@H]2C` (stereo not given in full), the MIC in the test on Pasteurella multocida was above 50 µg/mL; against Escherichia coli, above 50 µg/mL; with Staphylococcus aureus it was 0.78 µg/mL (≈ 0.831 µM).

Take `CC[C@H]1OC(=O)[C@H](C)[C@H]2OC3(CCN(c4nc5ccccc5[nH]4)CC3)O[C@](C)(C[C@@H](C)CN(C)[C@H](C)[C@@H](O)[C@]1(C)O)[C@H](O[C@@H]1O[C@H](C)CC(N(C)C)[C@H]1O)[C@H]2C` (stereo not given in full): the MIC against Pasteurella multocida turned out to be 0.1 µg/mL (≈ 0.127 µM); with Escherichia coli it was 1.56 µg/mL (≈ 1.98 µM); with Staphylococcus aureus it was 3.13 µg/mL (≈ 3.97 µM).

`CC[C@H]1OC(=O)[C@H](C)[C@H]2OC3(CCN(c4ccc([N+](=O)[O-])cc4)CC3)O[C@](C)(C[C@@H](C)CN(C)[C@H](C)[C@@H](O)[C@]1(C)O)[C@H](O[C@@H]1O[C@H](C)CC(N(C)C)[C@H]1O)[C@H]2C` (stereo not given in full): the figures for the MIC with Pasteurella multocida, in the test on Escherichia coli and in the test with Staphylococcus aureus were 0.39 µg/mL (≈ 0.492 µM), 6.25 µg/mL (≈ 7.88 µM) and 1.56 µg/mL (≈ 1.97 µM), respectively.

Regarding `CC[C@H]1OC(=O)[C@H](C)[C@H]2OC3(CCN(c4cc(OC)nc(OC)n4)CC3)O[C@](C)(C[C@@H](C)CN[C@H](C)[C@@H](O)[C@]1(C)O)[C@H](O[C@@H]1O[C@H](C)CC(N(C)C)[C@H]1O)[C@H]2C` (stereo not given in full), the MIC against Pasteurella multocida worked out at 0.2 µg/mL (≈ 0.251 µM); against Escherichia coli, 3.13 µg/mL (≈ 3.93 µM); against Staphylococcus aureus it was 1.56 µg/mL (≈ 1.96 µM).

For the molecule `CC[C@H]1OC(=O)[C@H](C)[C@H]2OC3(CCN(c4nc(C)ccc4C#N)CC3)O[C@](C)(C[C@@H](C)CN[C@H](C)[C@@H](O)[C@]1(C)O)[C@H](O[C@@H]1O[C@H](C)CC(N(C)C)[C@H]1O)[C@H]2C` (stereo not given in full), the MIC in the test on Pasteurella multocida turned out to be 0.78 µg/mL (≈ 1.01 µM); with Escherichia coli, 6.25 µg/mL (≈ 8.07 µM); in the test with Staphylococcus aureus, 0.78 µg/mL (≈ 1.01 µM).

On to `CC[C@H]1OC(=O)[C@H](C)[C@H]2OC3(CCN(c4ccc(C#N)cn4)CC3)O[C@](C)(C[C@@H](C)CN[C@H](C)[C@@H](O)[C@]1(C)O)[C@H](O[C@@H]1O[C@H](C)CC(N(C)C)[C@H]1O)[C@H]2C` (stereo not given in full), for which the MIC in the test with Pasteurella multocida was 0.2 µg/mL (≈ 0.263 µM); against Escherichia coli, 6.25 µg/mL (≈ 8.22 µM); against Staphylococcus aureus, 1.56 µg/mL (≈ 2.05 µM).

`CC[C@H]1OC(=O)[C@H](C)[C@H]2OC3(CCN(c4ccc(C(=O)N(C)c5ccncc5)cc4F)CC3)O[C@](C)(C[C@@H](C)CN(C)[C@H](C)[C@@H](O)[C@]1(C)O)[C@H](O[C@@H]1O[C@H](C)CC(N(C)C)[C@H]1O)[C@H]2C` (stereo not given in full): the MIC with Pasteurella multocida came to 0.2 µg/mL (≈ 0.222 µM); with Escherichia coli it was 1.56 µg/mL (≈ 1.73 µM); against Staphylococcus aureus, 3.13 µg/mL (≈ 3.48 µM).

Take `CC[C@H]1OC(=O)[C@H](C)[C@H]2OC3(CCN(c4ccc(C(=O)OCc5ccccc5)c(C(F)(F)F)c4)CC3)O[C@](C)(C[C@@H](C)CN[C@H](C)[C@@H](O)[C@]1(C)O)[C@H](O[C@@H]1O[C@H](C)CC(N(C)C)[C@H]1O)[C@H]2C` (stereo not given in full): the MIC with Pasteurella multocida is 6.25 µg/mL (≈ 6.68 µM); in the test with Escherichia coli, above 50 µg/mL; against Staphylococcus aureus it was 0.78 µg/mL (≈ 0.833 µM).

Take `CC[C@H]1OC(=O)[C@H](C)[C@H]2OC3(CCN(c4ncc(C(=O)NCc5ccncc5)cn4)CC3)O[C@](C)(C[C@@H](C)CN(C)[C@H](C)[C@@H](O)[C@]1(C)O)[C@H](O[C@@H]1O[C@H](C)CC(N(C)C)[C@H]1O)[C@H]2C` (stereo not given in full): the figures for the MIC with Pasteurella multocida, against Escherichia coli and in the test on Staphylococcus aureus were above 50 µg/mL, above 50 µg/mL and 3.52 µg/mL (≈ 3.98 µM), respectively.

Usually MIC stands for the lowest concentration found to suppress growth. Low values mean greater potency, high ones weaker potency.
